Results reported in PubChem BioAssay (NCI).
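96-well plates; 48 h exposure; 5 concentrations. Endpoints by linear interpolation between flanking doses. Not reached: highest tested concentration assigned. TGI is the concentration that stops growth completely.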

How the values were obtained:
Test in all cases: NCI anticancer screen, dose series, 48 h
[1] = tested on: CAKI-1 renal
[2] = tested on: TK-10 renal
[3] = tested on: MALME-3M melanoma
[4] = tested on: SF-295 CNS
[5] = tested on: CCRF-CEM leukemia
[6] = tested on: K-562 leukemia
[7] = tested on: SK-OV-3 ovarian
[8] = tested on: UACC-62 melanoma
[9] = tested on: OVCAR-3 ovarian
[10] = tested on: NCI-H522 lung
[11] = tested on: ACHN renal
[12] = tested on: A549 NSCLC
[13] = tested on: SNB-19 CNS
[14] = tested on: HCT-116 colon
[15] = tested on: IGROV1 ovarian
[16] = tested on: M14 melanoma
[17] = tested on: SK-MEL-2 melanoma
[18] = tested on: HL-60(TB) leukemia
[19] = tested on: SF-268 CNS
[20] = tested on: DLD-1 colon
[21] = tested on: NCI-H226 lung
[22] = tested on: A498 renal
[23] = tested on: KM12 colon
[24] = tested on: OVCAR-5 ovarian
[25] = tested on: SN12C renal
[26] = tested on: OVCAR-8 ovarian
[27] = tested on: RPMI-8226 leukemia
[28] = tested on: 786-0 renal
[29] = tested on: DMS 114 small cell lung
[30] = tested on: HCT-15 colon
[31] = tested on: EKVX NSCLC
[32] = tested on: LXFL 529 NSCLC
[33] = tested on: SW-620 colon
[34] = tested on: M19-MEL melanoma
[35] = tested on: SNB-75 CNS
[36] = tested on: HT29 colon
[37] = tested on: HOP-18 NSCLC
[38] = tested on: NCI-H23 lung
[39] = tested on: OVCAR-4 ovarian
[40] = tested on: COLO 205 colon
[41] = tested on: NCI-H460 lung
[42] = tested on: MOLT-4 leukemia
[43] = tested on: SK-MEL-28 melanoma
[44] = tested on: U251 CNS
[45] = tested on: SF-539 CNS
[46] = tested on: HOP-62 NSCLC
[47] = tested on: LOX IMVI melanoma
[48] = tested on: DMS 273 small cell lung
[49] = tested on: KM20L2 colon
[50] = tested on: RXF-631 renal
[51] = tested on: SK-MEL-5 melanoma
[52] = tested on: HOP-92 NSCLC
[53] = tested on: HCC-2998 colon

SMILES: COC(=O)c1ccc(C=C(C#N)C#N)cc1
- TGI [1]: 74.7 µM
- TGI [2]: 79.1 µM
- TGI [3]: 39.6 µM
- TGI [4]: 91.6 µM
- TGI [5]: 51.9 µM
- TGI [6]: 62.8 µM
- TGI [7]: > 100 µM
- TGI [8]: 57.6 µM
- TGI [9]: 67.5 µM
- TGI [10]: 30.1 µM
- TGI [11]: 56.9 µM
- TGI [12]: > 100 µM
- TGI [13]: > 100 µM
- TGI [14]: 31.5 µM
- TGI [15]: 73.8 µM
- TGI [16]: 32.7 µM
- TGI [17]: 38.1 µM
- TGI [18]: 58.1 µM
- TGI [19]: 59.1 µM
- TGI [20]: 47.9 µM
- TGI [21]: 80.4 µM
- TGI [22]: > 100 µM
- TGI [23]: 92.2 µM
- TGI [24]: > 100 µM
- TGI [25]: 41.6 µM
- TGI [26]: 56.5 µM
- TGI [27]: 72.6 µM
- TGI [28]: 33.4 µM
- TGI [29]: 49.4 µM
- TGI [30]: > 100 µM
- TGI [31]: > 100 µM
- TGI [32]: 37.4 µM
- TGI [33]: 45.1 µM
- TGI [34]: 75.4 µM
- TGI [35]: 82.5 µM
- TGI [36]: > 100 µM
- TGI [37]: > 100 µM
- TGI [38]: 38.4 µM
- TGI [39]: 47 µM
- TGI [40]: 74.6 µM
- TGI [41]: > 100 µM
- TGI [42]: 65.7 µM
- TGI [43]: 39.9 µM
- TGI [44]: 61.5 µM
- TGI [45]: 39.8 µM
- TGI [46]: 74.8 µM
- TGI [47]: 50.3 µM
- TGI [48]: 35.2 µM
- TGI [49]: > 100 µM
- TGI [50]: > 100 µM
- TGI [51]: 33.1 µM
- TGI [52]: 39.6 µM
- TGI [53]: 32.9 µM
